Experiments:
[1] = system: corn; experiment: Soil treatment test for upland field; assay type: in vivo; parameters: key: 0 = normal development, 5 = all killed; settings: 500 g/ha, 3 weeks, glass house 25° C.
Method: (§1) The herbicidal effects are evaluated according to the following 6 ranks as compared with non-treated district. (0: normal development, 1: Less damaged, 2: Slightly damaged, 3: Moderately damaged, 4: Severely damaged, 5: All killed). Incidentally, “-” in the column means not investigated.
(§2) Wagner pots, each having an area of 1/5000 are, were packed with Ube soil (alluvial soil), and then each seed of corn, soybean, cotton, wheat, solgum, sugar beat, Large crabgrass, barnyard grass, green foxtail, blackgrass, annual bluegrass, common lambsquarters, livid amaranth, velvetleaf, morning glory, common Cocklebur (Xanthium strumarium) and sicklepod (Cassia obtusifolia) were planted and covered with soil.
(§3) Each wettable powder of the desired compounds (I) shown in Tables 1 to 21, 24, 25, 28 and 29 prepared in accordance with Example 2 was diluted with water containing a surfactant (0.05%) and uniformly sprayed on the surface of each soil so that an effective concentration of the compound (I) in each herbicide became 500 g/ha.
(§4) These plants were controlled in a glass house at an average temperature of 25° C. for 3 weeks, and then herbicidal effects thereof were investigated.
(§5) The herbicidal effects were evaluated according to the evaluation method described in the above (1).

[2] = system: soybean; experiment: Soil treatment test for upland field; assay type: in vivo; parameters: key: 0 = normal development, 5 = all killed; settings: 500 g/ha, 3 weeks, glass house 25° C.
Method: as §1, §2, §3, §4, §5

[3] = system: wheat; experiment: Soil treatment test for upland field; assay type: in vivo; parameters: key: 0 = normal development, 5 = all killed; settings: 500 g/ha, 3 weeks, glass house 25° C.
Method: as §1, §2, §3, §4, §5

[4] = system: Large crabgrass; experiment: Soil treatment test for upland field; assay type: in vivo, Digitaria adscendens; parameters: key: 0 = normal development, 5 = all killed; settings: 500 g/ha, 3 weeks, glass house 25° C.
Method: as §1, §2, §3, §4, §5

[5] = system: green foxtail; experiment: Soil treatment test for upland field; assay type: in vivo, Setaria viridis; parameters: key: 0 = normal development, 5 = all killed; settings: 500 g/ha, 3 weeks, glass house 25° C.
Method: as §1, §2, §3, §4, §5

[6] = system: common lambsquarters; experiment: Soil treatment test for upland field; assay type: in vivo, Chenopodium album; parameters: key: 0 = normal development, 5 = all killed; settings: 500 g/ha, 3 weeks, glass house 25° C.
Method: as §1, §2, §3, §4, §5

[7] = system: livid amaranth; experiment: Soil treatment test for upland field; assay type: in vivo, Amaranthus lividus; parameters: key: 0 = normal development, 5 = all killed; settings: 500 g/ha, 3 weeks, glass house 25° C.
Method: as §1, §2, §3, §4, §5

[8] = system: solgum; experiment: Soil treatment test for upland field; assay type: in vivo; parameters: key: 0 = normal development, 5 = all killed; settings: 500 g/ha, 3 weeks, glass house 25° C.
Method: as §1, §2, §3, §4, §5

[9] = system: sugar beat; experiment: Soil treatment test for upland field; assay type: in vivo; parameters: key: 0 = normal development, 5 = all killed; settings: 500 g/ha, 3 weeks, glass house 25° C.
Method: as §1, §2, §3, §4, §5

[10] = system: barnyard grass; experiment: Soil treatment test for upland field; assay type: in vivo, Eschinochloa crusgalli; parameters: key: 0 = normal development, 5 = all killed; settings: 500 g/ha, 3 weeks, glass house 25° C.
Method: as §1, §2, §3, §4, §5

[11] = system: blackgrass; experiment: Soil treatment test for upland field; assay type: in vivo, Alopecurus aegualis; parameters: key: 0 = normal development, 5 = all killed; settings: 500 g/ha, 3 weeks, glass house 25° C.
Method: as §1, §2, §3, §4, §5

[12] = system: annual bluegrass; experiment: Soil treatment test for upland field; assay type: in vivo, Poa annua; parameters: key: 0 = normal development, 5 = all killed; settings: 500 g/ha, 3 weeks, glass house 25° C.
Method: as §1, §2, §3, §4, §5

[13] = system: velvetleaf; experiment: Soil treatment test for upland field; assay type: in vivo, Abutilon theophrasti; parameters: key: 0 = normal development, 5 = all killed; settings: 500 g/ha, 3 weeks, glass house 25° C.
Method: as §1, §2, §3, §4, §5

[14] = system: morning glory; experiment: Soil treatment test for upland field; assay type: in vivo, Ipomoea spps.; parameters: key: 0 = normal development, 5 = all killed; settings: 500 g/ha, 3 weeks, glass house 25° C.
Method: as §1, §2, §3, §4, §5

[15] = system: corn; experiment: Foliar spread test for upland field; assay type: in vivo; parameters: key: 0 = normal development, 5 = all killed (6 ranks vs. untreated); settings: foliar spray, 500 ppm, 3 weeks, glass house 25° C.
Method: as §1
(§6) Wagner pots, each having an area of 1/5000 are, were packed with volcanic ash soil and then each seed of corn, soybean, cotton, wheat, solgum, sugar beat, Large crabgrass, barnyardgrjass, green foxtail, blackgrass, annual bluegrass, common lambsquarters, livid amaranth, velvetleaf, morning glory, Xanthium pensylvanicum and Cassia obtusifolia was planted, covered with soil and grown in a glass house at an average temperature of 25° C. for about 2 weeks.
(§7) Each wettable powder of the desired compounds (I) shown in Tables 1 to 21, 24, 25, 28 and 29 prepared in accordance with Example 2 was diluted to 500 ppm with water containing a surfactant (0.5%) and then uniformly sprayed on the above respective plants.
(§8) After these plants were controlled in a glass house at an average temperature of 25° C. for 3 weeks, the herbicidal effects thereof were investigated.
as §5

[16] = system: cotton; experiment: Foliar spread test for upland field; assay type: in vivo; parameters: key: 0 = normal development, 5 = all killed (6 ranks vs. untreated); settings: foliar spray, 500 ppm, 3 weeks, glass house 25° C.
Method: as §1, §6, §7, §8, §5

[17] = system: solgum; experiment: Foliar spread test for upland field; assay type: in vivo; parameters: key: 0 = normal development, 5 = all killed (6 ranks vs. untreated); settings: foliar spray, 500 ppm, 3 weeks, glass house 25° C.
Method: as §1, §6, §7, §8, §5

[18] = system: soybean; experiment: Foliar spread test for upland field; assay type: in vivo; parameters: key: 0 = normal development, 5 = all killed (6 ranks vs. untreated); settings: foliar spray, 500 ppm, 3 weeks, glass house 25° C.
Method: as §1, §6, §7, §8, §5

[19] = system: sugar beat; experiment: Foliar spread test for upland field; assay type: in vivo; parameters: key: 0 = normal development, 5 = all killed (6 ranks vs. untreated); settings: foliar spray, 500 ppm, 3 weeks, glass house 25° C.
Method: as §1, §6, §7, §8, §5

[20] = system: wheat; experiment: Foliar spread test for upland field; assay type: in vivo; parameters: key: 0 = normal development, 5 = all killed (6 ranks vs. untreated); settings: foliar spray, 500 ppm, 3 weeks, glass house 25° C.
Method: as §1, §6, §7, §8, §5

[21] = system: Large crabgrass; experiment: Foliar spread test for upland field; assay type: in vivo, Digitaria adscendens; parameters: key: 0 = normal development, 5 = all killed (6 ranks vs. untreated); settings: foliar spray, 500 ppm, 3 weeks, glass house 25° C.
Method: as §1, §6, §7, §8, §5

[22] = system: barnyardgrjass; experiment: Foliar spread test for upland field; assay type: in vivo, Eschinochloa crusgalli; parameters: key: 0 = normal development, 5 = all killed (6 ranks vs. untreated); settings: foliar spray, 500 ppm, 3 weeks, glass house 25° C.
Method: as §1, §6, §7, §8, §5

[23] = system: green foxtail; experiment: Foliar spread test for upland field; assay type: in vivo, Setaria viridis; parameters: key: 0 = normal development, 5 = all killed (6 ranks vs. untreated); settings: foliar spray, 500 ppm, 3 weeks, glass house 25° C.
Method: as §1, §6, §7, §8, §5

[24] = system: blackgrass; experiment: Foliar spread test for upland field; assay type: in vivo, Alopecurus aegualis; parameters: key: 0 = normal development, 5 = all killed (6 ranks vs. untreated); settings: foliar spray, 500 ppm, 3 weeks, glass house 25° C.
Method: as §1, §6, §7, §8, §5

[25] = system: annual bluegrass; experiment: Foliar spread test for upland field; assay type: in vivo, Poa annua; parameters: key: 0 = normal development, 5 = all killed (6 ranks vs. untreated); settings: foliar spray, 500 ppm, 3 weeks, glass house 25° C.
Method: as §1, §6, §7, §8, §5

[26] = system: common lambsquarters; experiment: Foliar spread test for upland field; assay type: in vivo, Chenopodium album; parameters: key: 0 = normal development, 5 = all killed (6 ranks vs. untreated); settings: foliar spray, 500 ppm, 3 weeks, glass house 25° C.
Method: as §1, §6, §7, §8, §5

[27] = system: livid amaranth; experiment: Foliar spread test for upland field; assay type: in vivo, Amaranthus lividus; parameters: key: 0 = normal development, 5 = all killed (6 ranks vs. untreated); settings: foliar spray, 500 ppm, 3 weeks, glass house 25° C.
Method: as §1, §6, §7, §8, §5

[28] = system: velvetleaf; experiment: Foliar spread test for upland field; assay type: in vivo, Abutilon theophrasti; parameters: key: 0 = normal development, 5 = all killed (6 ranks vs. untreated); settings: foliar spray, 500 ppm, 3 weeks, glass house 25° C.
Method: as §1, §6, §7, §8, §5

[29] = system: morning glory; experiment: Foliar spread test for upland field; assay type: in vivo, Ipomoea spps.; parameters: key: 0 = normal development, 5 = all killed (6 ranks vs. untreated); settings: foliar spray, 500 ppm, 3 weeks, glass house 25° C.
Method: as §1, §6, §7, §8, §5

SMILES | Effects Corn [1] | Effects Soybean [2] | Effects Wheat [3] | Effects Large crabgrass [4] | Effects Green foxtail [5] | Effects Common lambsquarters [6] | Effects Livid amaranth [7] | Effects Solgum [8] | Effects Sugar beat [9] | Effects Barnyardgrass [10] | Effects Blackgrass [11] | Effects Annual bluegrass [12] | Effects Velvetleaf [13] | Effects Morning glory [14] | Effects Corn [15] | Effects Wheat [20] | Effects Large crabgrass [21] | Effects Green foxtail [23] | Effects Common lambsquarters [26] | Effects Livid amaranth [27] | further results
CCCC(Oc1cc(C)nc(SC)n1)c1nc2cc(C#N)c(F)cc2o1 (centres unmarked) [Compound 1-e-65] | 0 | 0 | 0 | 4 | 4 | 2 | 5 | – | – | – | – | – | – | – | – | – | – | – | – | – | –
CCC(=Cc1cccc(C(F)(F)F)c1)c1nc2cc([N+](=O)[O-])ccc2o1 [I-c-72] | 2 | 5 | 2 | 5 | 5 | 5 | 5 | 3 | 5 | 5 | 5 | 5 | 5 | 4 | 3 | 2 | 4 | 4 | 5 | 5 | Effects Sotton [16]: 4; Effects Solgum [17]: 3; Effects Soybean [18]: 5; Effects Sugar beat [19]: 4; Effects Barnyardgrass [22]: 3; Effects Blackgrass [24]: 3; Effects Annual bluegrass [25]: 4; Effects Velvetleaf [28]: 3; Effects Morning glory [29]: 5
CCC(Oc1cc(C(F)(F)F)nn1C)c1nc2cc(Cl)ccc2o1 (centres unmarked) [Compound 1-e-2] | 0 | 0 | 0 | 3 | 3 | 2 | 5 | – | – | – | – | 3 | – | – | 1 | 1 | – | 2 | 3 | 4 | –
CCC(=Cc1cccc(C(F)(F)F)c1)c1nc2cc(Br)ccc2o1 [I-c-67] | 2 | – | 1 | 5 | 5 | 5 | 5 | 5 | 5 | 5 | 5 | 5 | 5 | 4 | 3 | 2 | 4 | 4 | 5 | 5 | Effects Sotton [16]: 5; Effects Solgum [17]: 3; Effects Soybean [18]: 5; Effects Sugar beat [19]: 4; Effects Barnyardgrass [22]: 3; Effects Blackgrass [24]: 4; Effects Annual bluegrass [25]: 4; Effects Velvetleaf [28]: 4; Effects Morning glory [29]: 5
CCCC(=Cc1cccc(C(F)(F)F)c1)c1nc2cc([N+](=O)[O-])ccc2o1 [I-c-74] | 2 | – | 1 | 5 | 5 | 5 | 5 | 2 | 5 | 5 | 4 | 5 | 5 | 5 | 2 | 2 | 4 | 5 | 5 | 5 | Effects Sotton [16]: 5; Effects Solgum [17]: 2; Effects Soybean [18]: 5; Effects Sugar beat [19]: 4; Effects Barnyardgrass [22]: 2; Effects Blackgrass [24]: 2; Effects Annual bluegrass [25]: 4; Effects Velvetleaf [28]: 4; Effects Morning glory [29]: 5
CCC(Oc1cc(C(F)(F)F)on1)c1nc2cc(C#N)c(F)cc2o1 (centres unmarked) [I-e-40, 1-(5-cyano-6-fluorobenzoxazol-2-yl)-1-(5-trifluoromethylisoxazol-3-yloxy)propane] | 1 | 2 | 0 | 5 | 5 | 5 | 5 | – | – | 5 | – | 5 | – | – | – | 2 | 4 | 4 | 5 | 5 | –

Source: patent US7402548B2, “Benzoxazole compounds, process for producing the same and herbicides” (Kyoyu Agri Co., Ltd., priority 2000, dated 2008)
